In patent US11419834B2, “Methods for treating diseases or infections caused by or associated with H. pylori using a halogenated salicylanilide” (Rhode Island Hospital, priority 2019, dated 2022):
Converted amounts (≈) assume the structure as drawn. “Also recorded” adds a separate entry of the source.

Key:
H. pylori strain 60190 = experiment: Minimum bactericidal concentration (plating from MIC assay); assay type: cell-based, Helicobacter pylori; conditions: Helicobacter pylori; H. pylori strain 60190; read-out: MBC
H. Pylori 49503 = experiment: Broth microdilution assay, MIC; assay type: cell-based; conditions: Helicobacter pylori; strain H. Pylori 49503
H. Pylori 43504 = experiment: Broth microdilution assay, MIC; assay type: cell-based; conditions: Helicobacter pylori; strain H. Pylori 43504
[1] = test system: H. pylori bacteria (strain 60190); experiment: Time to kill assay; assay type: cell-based, Helicobacter pylori; conditions: 4×MIC (1 μg/mL); 10^9 cells/mL
Procedure: Niclosamide was therefore tested time to kill assays were used to confirm the killing properties of niclosamide against H. pylori. Agar grown H. pylori bacteria (strain 60190) were suspended in fresh Mueller Hinton Broth (MHB) with 10% Fetal bovine serum (FBS) to a density of 10^9 cells/mL and placed into 10 mL tubes (BD Biosciences). […] Aliquots were periodically drawn from the tubes, serially diluted and plated onto Brucella agar (BD Biosciences) supplemented with 10% FBS. CFUs were counted after a 3-day incubation and assays were carried out in duplicate. […] Of note, clarithromycin, a commonly prescribed antibiotic for H. pylori treatment, is also bacteriostatic (De Francesco et al. World journal of gastrointestinal pathophysiology 2, 35 (2011)).

H. pylori (strain 60190) = experiment: Effect of pH on MIC (broth microdilution); assay type: cell-based, Helicobacter pylori
Procedure: The pH was adjusted to acidic condition with 1 N HCl. The minimal bactericidal concentration (MBC) was determined by plating 5 μL of broth culture from the MIC assay onto Müller-Hinton agar (BD Biosciences) supplemented with 10% FBS. After 72 h, the lowest concentration at which colonies were not observed was reported as the MBC.

[2] = test system: IL-8 secretion from MKN-28 cells co-cultured with H. pylori; experiment: IL-8 secretion, real-time RT-PCR; assay type: cell-based; conditions: 4×MIC, 1.0 μg/mL, 24 hour incubation, H. pylori infected MKN-28 cells
Procedure: Real-Time (RT-PCR) was carried out to determine whether niclosamide has an inhibitory role in IL-8 secretion. MKN-28 cells were co-cultured with H. pylori (MOI=100) in the presence or absence of a test compound. At 24 hours, RNA was isolated from the infected host cells. cDNA was synthesized using the Verso cDNA (Invitrogen) synthesis kit according to manufacturer instructions. Quantitative real-time reactions were carried out in a Bio-Rad iTaq universal SYBR (Bio-Rad, Hercules, Calif. USA) one-step kit and a CFX98 real-time PCR cycler as described by Zheng et al. (Future Med. Chem. 2018, February; 10(3):283-296). The relative gene expression was calculated from Cq values using a ΔΔCq method.

[3] = test system: AGS cells co-cultured with H. pylori (strain 60190); experiment: Light microscopy imaging for vacuolation; assay type: cell-based; conditions: sub-MIC (0.2 μg/mL), 24 h, MOI of 100
Procedure: H. Pylon bacteria secrete VacA toxin via a type V secretion system (Galmiche et al. Gut Microbes. 2010 November-December; 1(6):392-5. 44). This toxin binds to host gastric epithelial cells and its internalization leads to vacuolation, characterized by the accumulation of large vacuoles in gastric epithelial cells during the infection process. AGS cells were harvested and seeded into a 6 well plate at a concentration of 5×10^5 cells, 24 h before experimentation. H. Pylon bacteria (strain 60190) were harvested and washed with sterile PBS and co-cultured with AGS at a MOI of 100. After incubation for 24 h, the cells were washed, magnified under a microscope, and examined for vacuolation. […] After 3 days, the bacteria were washed and treated with TRIZOL (Invitrogen, Carlsbad, Calif., USA), and the RNA concentration was determined using a NanoVue Plus spectrophotometer (GE Healthcare, Fairfield, Conn., USA). PCR amplifications were performed, and the products were analysed by gel electrophoresis (1.0% agarose) containing SYBR® Safe (Invitrogen). Gel images were captured and analysed using the Quantity One System.

[4] = test system: H. pylori vacA gene expression; experiment: RT-PCR study on VacA toxin expression; assay type: cell-based, Helicobacter pylori; conditions: sub-MIC level of 200 ng/mL, 3 days
H. pylori infection = experiment: Galleria mellonella in vivo infection model; conditions: 25 mg/kg, injected 2 hours after H. pylori inoculation
Procedure: Assays were performed as described by Giannouli et al. (BMC Microbiol. 2014 Aug. 27; 14:228), an alternative model host for the evaluation of antimicrobial agents against H. pylori infection. Twelve randomly selected G. mellonella larvae (Vanderhorst, Inc., St. Mary's, OH, USA) between 300-350 mg were used for each group in the experiment. H. pylori cells were washed with PBS and diluted to OD600 nm=0.3, before inoculation into G. mellonella larvae. A 10 μL inoculum was injected into the last left proleg using a 10 μL Hamilton syringe. After 2 hours, compounds were administered at into the last right proleg and the wax moths were incubate at 37° C. Niclosamide was administered at a concentration of 25 mg/kg. Clarithromycin administered at a concentration of 10 mg/kg was used as a comparator. Three control groups were included (1) injected with PBS only; (2) inoculated with H. pylori but treated with sham injections; and (3) no manipulation. G. mellonella survival was evaluated up to 120 hours. The surviving larvae were monitored every 24 hours and were considered dead if they were unresponsive to external stimuli (touch). Killing curves and differences in survival were analysed by the Kaplan-Meier method using GraphPad Prism version 6.04 (GraphPad Software, La Jolla, Calif., USA). Statistical analysis (Kruskal-Wallis test) was carried out using the same program.

O=C(Nc1ccc([N+](=O)[O-])cc1Cl)c1cc(Cl)ccc1O [Niclosamide, niclosamide]
MBC (H. pylori strain 60190): 0.5 µg/mL (≈ 1.53 µM)
MIC (H. Pylori 49503): 0.25 µg/mL (≈ 0.764 µM)
MIC (H. Pylori 43504): 0.125 µg/mL (≈ 0.382 µM)
killing kinetics (bacteriostatic or bactericidal) [1]: bacteriostatic
MIC (H. pylori (strain 60190); Helicobacter pylori, acidic pH, tested between pH 7.0 to 5.2, read-out: MIC in low pH): 0.25 µg/mL (≈ 0.764 µM)
change of MIC at acidic pH compared to pH 7.0 (H. pylori (strain 60190); pH 7.0 to 5.2): remained the same
effect on IL-8 secretion [2]: inhibited IL-8 secretion
effect on vacuolation of AGS cells [3]: prevented vacuolation
effect on VacA expression compared to housekeeping gene rpoB [4]: down-regulated vacA gene; also recorded: downregulates VacA expression
survival of wax-moth larvae up to 120 hours (H. pylori infection): About 60%
